Results from patent US11555006B2, “Elucidation of novel 13-series resolvins that increase with atorvastatin and clear infections” (The Brigham and Women's Hospital, Inc., priority 2015, dated 2023).

Experiments:
human recombinant COX-2 [1] = target: T1, human recombinant COX-2 (Homo sapiens, UniProt P35354); experiment: Recombinant enzyme incubations, Michaelis Menten kinetics; type: biochemical; details: n-3 DPA converted to 13R-HDPA by human recombinant COX-2
T1 construct: purchased Cayman Chemicals
T1 sequence (P35354 18-604): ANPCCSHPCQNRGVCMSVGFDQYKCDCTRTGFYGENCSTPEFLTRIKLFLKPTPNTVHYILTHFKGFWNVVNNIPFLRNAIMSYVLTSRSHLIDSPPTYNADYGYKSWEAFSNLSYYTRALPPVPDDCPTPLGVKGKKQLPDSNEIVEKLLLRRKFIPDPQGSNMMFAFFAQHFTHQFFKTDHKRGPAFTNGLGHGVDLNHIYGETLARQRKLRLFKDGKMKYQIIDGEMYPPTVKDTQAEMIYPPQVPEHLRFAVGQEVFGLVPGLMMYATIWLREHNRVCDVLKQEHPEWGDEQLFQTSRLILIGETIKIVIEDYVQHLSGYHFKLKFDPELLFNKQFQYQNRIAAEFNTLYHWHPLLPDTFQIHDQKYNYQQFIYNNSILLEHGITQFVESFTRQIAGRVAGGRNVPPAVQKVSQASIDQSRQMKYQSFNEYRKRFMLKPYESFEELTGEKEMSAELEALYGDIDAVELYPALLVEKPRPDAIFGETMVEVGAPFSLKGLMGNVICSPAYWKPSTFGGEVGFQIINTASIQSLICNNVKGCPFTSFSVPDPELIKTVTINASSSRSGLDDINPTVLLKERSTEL
Description: Human recombinant COX-2 (10 units; Cayman Chemicals; in 0.1 M Tris-HCl, pH 8.0, 20 μM porcine hematin, 0.67 mM phenol as in ^33) was incubated with the indicated concentrations of AA or n-3 DPA (1 h, RT) and absorbance at 235 nm was investigated at 1 min intervals using a Cary UV-Vis Spectrophotometer (Agilent).

[2] = tested on: human neutrophil-endothelial cell co-incubations; experiment: Lipid mediator levels in human endothelial cell incubations and neutrophil-endothelial cell co-incubations; type: cell-based; details: neutrophil-endothelial cells, 1 μM precursor
Description: Prior to sample extraction, deuterated internal standards (d4-PGE2, d5-LXA4, d4-RvD2, d4-LTB4 and d8-5S-HETE) representing regions of interest in the chromatographic analysis (500 pg each) were added to facilitate quantification. Extracted samples were analyzed by a LC-MS-MS system, Qtrap 6500 (AB Sciex) equipped with a Shimadzu SIL-20AC autoinjector and LC-20AD binary pump (Shimadzu Corp.). An Agilent Eclipse Plus C18 column (100×4.6 mm×1.8 μm) was used with a gradient of methanol/water/acetic acid of 55:45:0.01 (vol:vol:vol) that was ramped to 85:15:0.01 (vol:vol:vol) over 10 min and then to 98:2:0.01 (vol:vol:vol) for the next 8 min. This was subsequently maintained at 98:2:0.01 (vol:vol:vol) for 2 min. The flow rate was maintained at 0.4 ml/min. To monitor and quantify the levels of lipid mediators, a multiple reaction monitoring (MRM) method was developed with signature ion fragments (m/z) for each molecule monitoring the parent ion (Q1) and a characteristic daughter ion (Q3). […] Calibration curves were determined using a mixture of lipid mediators obtained via total organic synthesis, where these lipid mediators were not available (RvT1, RvT2, RvT3, RvT4 and 13-HDPA); known mediators with similar chromatographic properties (RvD2 for RvT1, RvD1 for RvT2 and RvT3; RvD5 for RvT4; 13-HDHA for 13-HDPA) were used. […]

human recombinant COX-2 [3] = target: T1, human recombinant COX-2; experiment: n-3 DPA conversion by S-nitrosylated hrCOX-2; type: biochemical; details: hrCOX-2 incubated with S-nitrosoglutathione
Description: In designated experiments, n-3 DPA was incubated with hrCOX2, hrCOX-2 that was previously incubated with S-nitrosoglutathione (30 min RT), prepared by incubating 100 mM glutathione with 100 mM sodium nitrite in 200 mM hydrochloric acid at RT as in ^34 or S-nitrosoglutathione. After 20 min the incubations were quenched with methanol and 13-HDPA levels were assessed using LC-MS-MS-based LM metabololipidomics.

Row | Km (human recombinant COX-2 [1]) | 13R-HDPA and hrCOX-2 catalytic activity compared to native COX-2 (human recombinant COX-2 [3]) | Structure (SMILES) | increase in RvT amounts on co-incubation with precursor [2]
1 | 3.1 ± 1.3 µM |  | CC/C=C\C/C=C\C/C=C\C/C=C\C/C=C\CCCCCC(=O)O [n-3 DPA, n-3 docosapentaenoic acid] | 30-50%
2 |  | increased | N[C@@H](CCC(=O)N[C@@H](CSN=O)C(=O)NCC(=O)O)C(=O)O [S-nitrosoglutathione] | 
